Read-outs that look alike come from different tables or passages of the source.
Assays:
HsCLK1 = biological target: T1, HsCLK1 (Homo sapiens, UniProt P49759); assay: ADP-Glo kinase assay; type: biochemical
T1 construct: host or cells: Sf9 insect cells (baculovirus)

HsDYRK1A = biological target: T2, HsDYRK1A (Homo sapiens, UniProt Q13627); assay: ADP-Glo kinase assay; type: biochemical; conditions: n=2, read-out: % of residual activity Hs_DYRK1A
T2 construct: host or cells: Sf9 insect cells (baculovirus)

MmCLK1 = biological target: T3, MmCLK1 (Mus musculus, UniProt P22518); assay: ADP-Glo kinase assay; type: biochemical; conditions: for remaining activity at 1 µM / remaining activity at 10 µM: n=2, read-out: % of residual activity Mm_CLK1; for IC50: mouse CLK1 orthologue, read-out: IC50 MmCLK1
T3 construct: host or cells: bacteria
T3 sequence (P22518 whole entry): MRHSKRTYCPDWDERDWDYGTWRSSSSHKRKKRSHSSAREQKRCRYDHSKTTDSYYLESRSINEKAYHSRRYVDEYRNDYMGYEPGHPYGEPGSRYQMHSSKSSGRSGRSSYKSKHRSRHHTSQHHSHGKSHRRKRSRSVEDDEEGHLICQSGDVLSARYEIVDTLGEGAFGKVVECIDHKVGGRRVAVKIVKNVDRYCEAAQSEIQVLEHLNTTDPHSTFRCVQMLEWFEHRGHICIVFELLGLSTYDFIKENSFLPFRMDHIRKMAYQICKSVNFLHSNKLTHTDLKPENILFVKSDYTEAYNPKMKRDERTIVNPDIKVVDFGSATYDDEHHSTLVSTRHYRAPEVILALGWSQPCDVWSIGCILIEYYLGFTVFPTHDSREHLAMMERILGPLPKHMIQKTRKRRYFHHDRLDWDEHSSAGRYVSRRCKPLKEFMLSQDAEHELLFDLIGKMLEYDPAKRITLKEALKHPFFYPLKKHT

Hs_CDK5/p25 = biological target: T4, Hs_CDK5/p25 (Homo sapiens, UniProt Q00535); assay: ADP-Glo kinase assay, primary screen; type: biochemical; conditions: n=2, read-out: % of residual activity Hs_CDK5/p25
T4 construct: host or cells: bacteria
T4 sequence (Q00535 whole entry): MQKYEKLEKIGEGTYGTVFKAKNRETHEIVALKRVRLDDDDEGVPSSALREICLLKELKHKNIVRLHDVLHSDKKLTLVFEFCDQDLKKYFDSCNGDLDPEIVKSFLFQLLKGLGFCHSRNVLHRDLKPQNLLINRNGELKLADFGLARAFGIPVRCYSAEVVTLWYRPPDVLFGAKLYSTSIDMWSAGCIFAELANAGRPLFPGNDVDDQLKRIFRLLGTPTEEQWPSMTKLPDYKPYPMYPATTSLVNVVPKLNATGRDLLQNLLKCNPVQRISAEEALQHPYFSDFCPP
T4 sequence (Q15078 99-307 partner limits assumed): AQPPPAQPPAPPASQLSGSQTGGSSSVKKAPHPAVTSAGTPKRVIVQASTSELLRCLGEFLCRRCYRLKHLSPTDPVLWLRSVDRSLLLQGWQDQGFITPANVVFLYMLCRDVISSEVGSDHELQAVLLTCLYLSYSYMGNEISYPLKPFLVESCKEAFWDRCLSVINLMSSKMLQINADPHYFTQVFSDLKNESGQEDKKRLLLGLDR

Hs_CDK9/CyclinT = biological target: T5, Hs_CDK9/CyclinT (Homo sapiens, UniProt P50750); assay: ADP-Glo kinase assay, primary screen; type: biochemical; conditions: n=2, read-out: % of residual activity Hs_CDK9/CyclinT
T5 construct: host or cells: Sf9 insect cells (baculovirus)
T5 sequence (P50750 whole entry): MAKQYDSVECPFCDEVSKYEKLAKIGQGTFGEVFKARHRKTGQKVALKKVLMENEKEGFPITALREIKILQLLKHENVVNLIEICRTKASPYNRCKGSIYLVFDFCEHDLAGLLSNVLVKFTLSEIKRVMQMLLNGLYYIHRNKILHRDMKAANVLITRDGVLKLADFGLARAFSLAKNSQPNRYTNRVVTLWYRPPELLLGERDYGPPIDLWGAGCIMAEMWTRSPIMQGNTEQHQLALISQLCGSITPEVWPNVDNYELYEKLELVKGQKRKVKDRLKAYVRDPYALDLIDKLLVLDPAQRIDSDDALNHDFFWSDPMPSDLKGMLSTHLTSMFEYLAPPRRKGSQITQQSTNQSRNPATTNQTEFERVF
T5 sequence (O60563 whole entry partner): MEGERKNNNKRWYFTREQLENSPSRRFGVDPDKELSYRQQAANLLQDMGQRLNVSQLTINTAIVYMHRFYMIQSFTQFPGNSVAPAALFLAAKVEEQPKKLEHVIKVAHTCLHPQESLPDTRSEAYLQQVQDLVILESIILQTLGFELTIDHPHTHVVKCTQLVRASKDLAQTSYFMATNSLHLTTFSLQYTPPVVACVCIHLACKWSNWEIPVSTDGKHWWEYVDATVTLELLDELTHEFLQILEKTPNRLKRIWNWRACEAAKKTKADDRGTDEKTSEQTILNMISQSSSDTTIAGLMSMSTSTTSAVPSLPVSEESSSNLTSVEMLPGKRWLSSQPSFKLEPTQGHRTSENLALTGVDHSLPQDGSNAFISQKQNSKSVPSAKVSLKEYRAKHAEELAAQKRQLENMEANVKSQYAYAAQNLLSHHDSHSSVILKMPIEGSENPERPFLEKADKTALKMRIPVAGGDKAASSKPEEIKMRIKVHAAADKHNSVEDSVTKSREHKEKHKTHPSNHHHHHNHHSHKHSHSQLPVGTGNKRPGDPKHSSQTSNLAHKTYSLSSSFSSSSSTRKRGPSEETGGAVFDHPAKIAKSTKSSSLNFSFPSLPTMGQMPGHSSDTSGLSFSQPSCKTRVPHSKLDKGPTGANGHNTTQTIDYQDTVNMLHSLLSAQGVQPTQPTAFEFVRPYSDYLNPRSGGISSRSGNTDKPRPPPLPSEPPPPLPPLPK

Hs_PIM1 = biological target: T6, Hs_PIM1 (Homo sapiens, UniProt P11309); assay: ADP-Glo kinase assay, primary screen; type: biochemical; conditions: n=2, read-out: % of residual activity Hs_PIM1
T6 construct: host or cells: Sf9 insect cells (baculovirus)
T6 sequence (P11309 whole entry): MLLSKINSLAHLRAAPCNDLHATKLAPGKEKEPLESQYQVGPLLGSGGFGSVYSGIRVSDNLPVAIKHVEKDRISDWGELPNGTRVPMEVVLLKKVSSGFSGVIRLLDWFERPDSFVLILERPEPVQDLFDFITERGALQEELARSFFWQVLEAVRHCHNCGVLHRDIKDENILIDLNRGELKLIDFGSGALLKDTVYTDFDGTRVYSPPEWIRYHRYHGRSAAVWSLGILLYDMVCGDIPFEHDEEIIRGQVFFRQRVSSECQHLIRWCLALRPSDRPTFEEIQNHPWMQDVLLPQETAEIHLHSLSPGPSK

Rn_DYRK1A = biological target: T7, Rn_DYRK1A (Rattus norvegicus, UniProt Q63470); assay: ADP-Glo kinase assay, primary screen; type: biochemical; conditions: n=2, read-out: % of residual activity Rn_DYRK1A
T7 construct: host or cells: bacteria

Hs_HASPIN = biological target: T8, Hs_HASPIN (Homo sapiens, UniProt Q8TF76); assay: ADP-Glo kinase assay, primary screen; type: biochemical; conditions: n=2, read-out: % of residual activity Hs_HASPIN
T8 construct: host or cells: bacteria
T8 sequence (Q8TF76 1-798): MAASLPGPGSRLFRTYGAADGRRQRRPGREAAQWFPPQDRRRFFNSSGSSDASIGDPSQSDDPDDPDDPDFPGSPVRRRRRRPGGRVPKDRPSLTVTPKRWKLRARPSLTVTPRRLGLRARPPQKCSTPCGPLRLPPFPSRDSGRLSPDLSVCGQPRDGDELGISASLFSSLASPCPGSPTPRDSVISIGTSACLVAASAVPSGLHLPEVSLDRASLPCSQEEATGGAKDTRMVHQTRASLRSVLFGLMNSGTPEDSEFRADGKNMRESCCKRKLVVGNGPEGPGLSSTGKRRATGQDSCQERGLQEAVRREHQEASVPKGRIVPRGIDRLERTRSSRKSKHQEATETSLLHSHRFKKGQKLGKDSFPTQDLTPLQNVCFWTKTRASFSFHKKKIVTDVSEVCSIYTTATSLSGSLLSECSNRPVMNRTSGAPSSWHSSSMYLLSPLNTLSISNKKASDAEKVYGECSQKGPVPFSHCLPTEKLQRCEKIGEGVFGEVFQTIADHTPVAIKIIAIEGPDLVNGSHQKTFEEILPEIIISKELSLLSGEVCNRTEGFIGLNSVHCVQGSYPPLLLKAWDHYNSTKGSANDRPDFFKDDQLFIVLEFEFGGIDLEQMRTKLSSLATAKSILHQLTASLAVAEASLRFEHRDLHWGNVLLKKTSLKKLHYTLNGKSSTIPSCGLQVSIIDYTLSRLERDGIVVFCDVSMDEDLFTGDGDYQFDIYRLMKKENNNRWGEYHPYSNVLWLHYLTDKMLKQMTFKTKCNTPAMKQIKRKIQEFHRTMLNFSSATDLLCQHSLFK

Hs_GSK3β = biological target: T9, Hs_GSK3β (Homo sapiens, UniProt P49841); assay: ADP-Glo kinase assay, primary screen; type: biochemical; conditions: n=2, read-out: % of residual activity Hs_GSK3β
T9 construct: host or cells: Sf9 insect cells (baculovirus)
T9 sequence (P49841 whole entry): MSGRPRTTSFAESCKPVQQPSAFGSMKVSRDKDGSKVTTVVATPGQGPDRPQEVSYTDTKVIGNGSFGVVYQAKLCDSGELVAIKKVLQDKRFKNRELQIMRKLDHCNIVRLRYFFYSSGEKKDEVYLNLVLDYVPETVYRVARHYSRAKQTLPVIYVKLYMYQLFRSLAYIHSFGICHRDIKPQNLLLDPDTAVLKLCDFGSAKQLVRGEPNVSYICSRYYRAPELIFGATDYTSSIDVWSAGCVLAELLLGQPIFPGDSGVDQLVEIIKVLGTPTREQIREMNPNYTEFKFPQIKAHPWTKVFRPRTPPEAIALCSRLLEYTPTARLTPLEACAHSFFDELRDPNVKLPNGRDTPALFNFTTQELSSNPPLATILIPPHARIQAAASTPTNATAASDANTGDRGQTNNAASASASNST

Hs_CK1ε = biological target: T10, Hs_CK1ε (Homo sapiens, UniProt P49674); assay: ADP-Glo kinase assay, primary screen; type: biochemical; conditions: n=2, read-out: % of residual activity Hs_CK1ε
T10 construct: host or cells: Sf9 insect cells (baculovirus)
T10 sequence (P49674 whole entry): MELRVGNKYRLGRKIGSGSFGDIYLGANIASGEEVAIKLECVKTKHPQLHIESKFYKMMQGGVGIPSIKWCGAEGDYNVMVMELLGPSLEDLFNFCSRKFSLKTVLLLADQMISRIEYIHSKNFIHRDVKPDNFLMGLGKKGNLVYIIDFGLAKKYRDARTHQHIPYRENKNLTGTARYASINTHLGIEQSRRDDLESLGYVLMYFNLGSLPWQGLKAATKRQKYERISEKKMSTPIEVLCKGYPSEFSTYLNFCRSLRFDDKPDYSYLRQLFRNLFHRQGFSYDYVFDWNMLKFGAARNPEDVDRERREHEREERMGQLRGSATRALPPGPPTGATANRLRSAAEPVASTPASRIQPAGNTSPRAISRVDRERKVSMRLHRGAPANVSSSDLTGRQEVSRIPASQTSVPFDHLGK

[1] = cytotoxic assay, nuclei count (Hoechst, HCS); type: cell-based; conditions: human, HuH7 cells (hepatocellular carcinoma); 48 h treatment; read-out: Cytotoxic studies IC50 HuH7
[2] = cytotoxic assay, nuclei count (Hoechst, HCS); type: cell-based; conditions: human, MDA-MB-231 cells (breast carcinoma); 48 h treatment; read-out: Cytotoxic studies IC50 MDA-MB-231
[3] = cytotoxic assay, nuclei count (Hoechst, HCS); type: cell-based; conditions: human, 48 h treatment
Experimental: (§1) To complete our study, we performed a cytotoxicity screening of the 15 molecules, investigating 7 representative cancer cell lines. The compound’s effect on cell viability was evaluated on Huh-7 (hepatocellular carcinoma), CaCo2, HCT-116 (colorectal adenocarcinoma), MCF7, MDA-MB231, MDA-MB468 (breast carcinoma), PC3 (prostate carcinoma) and NCI-H727 (lung carcinoid). Human skin fibroblasts were used as reference for non-cancerous cells. Roscovitine, Doxorubicin and Taxol were used as positive controls. The cells were treated for 48 h with 25 µM compounds and fixed in cooled 90% ethanol/5% acetic acid for 20 min. The nuclei were stained with Hoechst 33342 and counted using HCS technology.
(§2) HuH7, CaCo-2, MDA-MB-231, HCT116, PC3, MCF7 and NCI-H727 cancer cell lines were obtained from the ECACC collection (Porton Down, UK). Cells were grown at 37 °C, 5% CO2 in ECACC recommended media: DMEM for HuH7, MDA-MB-231 and fibroblast, EMEM for MCF7and CaCo-2, McCoy’s for HCT116 and RPMI for PC3 and NCI-H727. All culture media were supplemented with 10% of FBS, 1% of penicillin-streptomycin and 2 mM glutamine.
(§3) Chemicals were solubilized in DMSO at a concentration of 10 mM (stock solution) and diluted in culture medium to the desired final concentrations.
[…] Cells were plated in 96 wells plates (4000 cells/well). Twenty-four hours after seeding, cells were exposed to chemicals. After 48 h of treatment, cells were washed in PBS and fixed in cooled 90% ethanol/5% acetic acid for 20 min and the nuclei were stained with Hoechst 33342 (B2261 Sigma). Image acquisition and analysis were performed using a CellomicsArrayScan VTI/HCS Reader (ThermoScientific, Waltham, MA, USA). The survival percentages were calculated as the percentage of cell number after compound treatment over cell number after DMSO treatment.

[4] = cytotoxic assay, nuclei count (Hoechst, HCS); type: cell-based; conditions: human, MCF7 cells (breast carcinoma); 48 h treatment; read-out: Cytotoxic studies IC50 MCF7
Experimental: as §1, §2, §3
(§4) The cytotoxic assay of chemical was performed at 25 µM. Cells were plated in 96 wells plates (4000 cells/well). Twenty-four hours after seeding, cells were exposed to chemicals. After 48 h of treatment, cells were washed in PBS and fixed in cooled 90% ethanol/5% acetic acid for 20 min and the nuclei were stained with Hoechst 33342 (B2261 Sigma). Image acquisition and analysis were performed using a CellomicsArrayScan VTI/HCS Reader (ThermoScientific, Waltham, MA, USA). The survival percentages were calculated as the percentage of cell number after compound treatment over cell number after DMSO treatment.

[5] = cytotoxic assay, nuclei count (Hoechst, HCS); type: cell-based, human; conditions: human, human skin fibroblasts (non-cancerous reference cells); 48 h treatment; some cells add low/moderate/high amplitude; read-out: Cytotoxic studies IC50 Fibroblasts
Experimental: as §1, §2, §3, §4

Human skin fibroblasts = assay: cytotoxic assay, nuclei count (Hoechst, HCS); type: cell-based; conditions: summary of Table S2
Experimental: as §1, §2, §3, §4

[6] = cytotoxic assay, nuclei count (Hoechst, HCS); type: cell-based; conditions: human, Caco-2 cells (colorectal adenocarcinoma); 48 h treatment; read-out: Cytotoxic studies IC50 Caco2
[7] = HCT116 cells (colorectal adenocarcinoma), read-out: Cytotoxic studies IC50 HCT116
[8] = MDA-MB-468 cells (breast carcinoma), read-out: Cytotoxic studies IC50 MDA-MB-468

T1 sequence (P49759 whole entry): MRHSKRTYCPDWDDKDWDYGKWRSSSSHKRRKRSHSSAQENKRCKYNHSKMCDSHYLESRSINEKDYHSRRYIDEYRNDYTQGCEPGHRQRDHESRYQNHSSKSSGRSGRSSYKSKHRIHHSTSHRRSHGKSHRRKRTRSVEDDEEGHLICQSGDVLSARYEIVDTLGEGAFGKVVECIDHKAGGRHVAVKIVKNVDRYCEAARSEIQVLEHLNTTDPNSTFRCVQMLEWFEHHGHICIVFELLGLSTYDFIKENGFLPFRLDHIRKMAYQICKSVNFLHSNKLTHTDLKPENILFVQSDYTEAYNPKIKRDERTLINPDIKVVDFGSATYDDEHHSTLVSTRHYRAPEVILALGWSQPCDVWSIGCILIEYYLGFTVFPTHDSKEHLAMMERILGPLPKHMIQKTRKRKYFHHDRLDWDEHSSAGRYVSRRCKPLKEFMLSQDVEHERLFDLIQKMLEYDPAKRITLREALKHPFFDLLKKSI

SMILES | remaining activity at 1 µM (HsDYRK1A) | remaining activity at 10 µM (HsDYRK1A) | remaining activity at 1 µM (MmCLK1) | remaining activity at 10 µM (MmCLK1) | IC50 (MmCLK1) | remaining activity at 1 µM (Hs_CDK5/p25) | remaining activity at 10 µM (Hs_CDK5/p25) | remaining activity at 1 µM (Hs_CDK9/CyclinT) | remaining activity at 10 µM (Hs_CDK9/CyclinT) | remaining activity at 1 µM (Hs_PIM1) | remaining activity at 10 µM (Hs_PIM1) | remaining activity at 1 µM (Rn_DYRK1A) | remaining activity at 10 µM (Rn_DYRK1A) | remaining activity at 1 µM (Hs_HASPIN) | remaining activity at 10 µM (Hs_HASPIN) | remaining activity at 1 µM (Hs_GSK3β) | remaining activity at 10 µM (Hs_GSK3β) | remaining activity at 1 µM (Hs_CK1ε) | remaining activity at 10 µM (Hs_CK1ε) | IC50 at 48 h [1] | also measured
Cc1ccc(-n2cc(COc3cccc4cnc(Nc5ccccc5)nc34)nn2)c([N+](=O)[O-])c1 [7a, N-Phenyl-8-((1-(4-methyl-2-nitrophenyl)-1H-1,2,3-triazol-4-yl)methoxy)quinazolin-2-amine] | ≥ 100% | 92% | 43% | 30% | 0.466 µM | ≥ 100% | 65% | 55% | 45% | 81% | 60% | 56% | 90% | 95% | 94% | 87% | 70% | 93% | 89% | 3 µM | IC50 (HsCLK1; 10 µM ATP, duplicate, read-out: IC50 HsCLK1): 1.1 µM; times less active than DB18 on human CLK1 (HsCLK1; ratio of IC50 1100 and […] nM): 100 times; IC50 at 48 h [2]: 9 µM; IC50 at 48 h [3, 7]: 7 µM; IC50 at 48 h [3, 8]: > 25 µM; IC50 at 48 h [4]: 7 µM; IC50 at 48 h [5]: > 25 µM; toxicity towards fibroblasts (Human skin fibroblasts): non-toxic
O=[N+]([O-])c1cc(O)ccc1-n1cc(COc2cccc3cnc(Nc4cccc(Cl)c4)nc23)nn1 [12c, N-(3-Chlorophenyl)-8-((1-(4-hydroxy-2-nitrophenyl)-1H-1,2,3-triazol-4-yl)methoxy)quinazolin-2-amine] | ≥ 100% | 60% | 36% | 20% | 0.177 µM | 71% | 30% | 58% | 39% | 59% | 68% | 81% | 45% | 83% | 88% | 89% | 60% | 94% | 81% | 5 µM | IC50 at 48 h [6]: 24 µM; IC50 at 48 h [2]: 19 µM; IC50 at 48 h [3, 7]: 1.3 µM; IC50 at 48 h [3, 8]: 4 µM; IC50 at 48 h [4]: 9 µM; IC50 at 48 h [5]: 6 µM; toxicity towards fibroblasts (Human skin fibroblasts): moderate toxicity

Reference: article PMC9571063 (Molecules, 2022)
